Earlier results as cited in patent US6518254B1, “Ribonucleoside-TRIBOSE” (priority 2002, dated 2003).

What was measured:
[1] = compared with Ribavirin
[2] = tested on: DNA and RNA viruses; conditions: in vitro tissue culture; at least 16 DNA and RNA viruses; Science, 177, 705, 1972

Structure (SMILES) | immuno-modulatory activity [1] | antiviral activity in tissue culture [2]
NC(=O)c1ncn([C@H]2O[C@@H](CO)[C@H](O)[C@@H]2O)n1 (single isomer, unassigned) [L isomer of Ribavirin] | immuno-modulatory activity similar to Ribavirin | –
NC(=O)c1ncn([C@@H]2O[C@H](CO)[C@@H](O)[C@H]2O)n1 [Ribavirin, 1-beta-D-ribofuranosyl-1H-1,2,4-triazole-3-carboxamide] | – | active against at least 16 DNA and RNA viruses
